# Measured values as given in patent US12005056B2, “Centrally-active ghrelin agonist and medical uses thereof” (Helsinn Healthcare SA, priority 2018, dated 2024).
# “Also recorded” adds a separate entry of the source. Where two headings read alike, the source gives them in different places.
# Key:
# [1] = system: bortezomib-treated Wistar rats; assay: Bortezomib study, therapeutic paradigm; conditions: for Allodynia / Body Weight / DRG/nerve pathology / IENFD / NCS: Bortezomib Therapeutic setting, 0.2 mg/kg (i.v.) 3 times/week for 8 weeks
# [2] = system: bortezomib-treated Wistar rats; assay: Bortezomib study, prevention paradigm; type: in vivo; conditions: for Allodynia / Body Weight / DRG/nerve pathology / IENFD / NCS: Bortezomib Preventive setting, 0.2 mg/kg (i.v.) 3 times/week for 8 weeks
# [3] = rat, in vivo
# healthy male subjects = type: in vivo, human; conditions: for maximal decrease of mean heart rate (Holter-ECG): 1 to 3 hours after administration
# Method: The study was performed as a single-center, randomized, double-blind, placebo-controlled, Phase 1 study with healthy male subjects receiving single ascending oral doses of Compound A. A dose-escalation design was considered to be appropriate to investigate the safety and tolerability of this new compound in the first single dose study in humans. Within each cohort six subjects were to receive a single oral dose of Compound A and two subjects were to receive placebo on Day 1.
# Each subject received a single oral dose of either Compound A or placebo in a randomized fashion. Study drug administrations were performed in the morning of Day 1. The proper administration of the study medication was supervised by the Investigator or delegate. This included checking the oral and buccal cavity. The study medication or placebo was supplied as powder-containing gelatin capsules; they were administered orally together with 240 mL water. Subjects were dosed in a fasted state (no food was taken for at least 8 hours prior to dosing). Access to food was restricted until 4 hours after dosing.
# 12-lead ECGs were recorded on Day −1 and from pre-dose on Day 1 to 72 hours after drug administration. In addition, a Holter-ECG was recorded from about at least 12 hours prior to the planned dosing until 24 hours post-dose. Triplicate extracts (1 min interval) were taken at the same time-points when paper ECGs were taken. Vital signs (blood pressure, pulse rate, body temperature [auricular measurement]) were measured on Day −1 and then from pre-dose on Day 1 to 72 hours post-dose. 12-lead ECGs were recorded as scheduled in the study flow chart using the ECG system (Cardiosoft, Marquette Hellige). Triplicate ECGs were recorded at 36, 48 and 72 hours post-dose. The ECGs were recorded in supine position after at least 5 minutes rest or after at least 15 minutes rest at time points when ECG extracts from the Holter-ECG were done (to allow for a sufficient time period). ECGs were plotted with a paper speed of 50 mm/s and 10 mm/mV amplitude, with 10 seconds recording duration for all leads and at least 3 complexes, but preferably 5 complexes in each lead. The following ECG parameters were evaluated: heart rate, PR interval, QRS interval, QT interval, QTcB (using Bazett's correction formula) and QTcF (using Fridericia's correction formula).
# [4] = Method: The stability of Compound A was followed by HPLC analysis. […] Additionally a stability study was performed over 3 years on industrial batch of dried material.
# [5] = therapeutic setting, all doses, monohydrochloride salt
# [6] = crude wet material, batch #01, 2-8° C., t = 0
# [7] = crude wet material, batch #01, 2-8° C., t = 8 days
# [8] = crude wet material, batch #01, 2-8° C., t = 30 days
# [9] = crude wet material, batch #02, rt under air, t = 0
# [10] = crude wet material, batch #02, rt under air, t = 24 days
# [11] = during drying at 60° C., t = 74 hours
substance,measurement,setting,value
"3-(1-(2,3-dichloro-4-methoxyphenyl) ethyl)-1-methyl-1-(1,3,3-trimethylpiperidin-4-yl)urea monohydrochloride salt [Compound A]",Allodynia,[1]; Compound A dose 3,+
same,Body Weight,[1]; Compound A dose 3,+/−
same,DRG/nerve pathology,[1]; Compound A dose 3,−
same,IENFD,[1]; Compound A dose 3,−
same,NCS,[1]; Compound A dose 3,+/−
same,Allodynia,[1]; Compound A dose 10,+
same,Body Weight,[1]; Compound A dose 10,+/−
same,DRG/nerve pathology,[1]; Compound A dose 10,+/−
same,IENFD,[1]; Compound A dose 10,−
same,NCS,[1]; Compound A dose 10,+/−
same,Allodynia,[1]; Compound A dose 30,+
same,Body Weight,[1]; Compound A dose 30,+/−
same,DRG/nerve pathology,[1]; Compound A dose 30,+/−
same,IENFD,[1]; Compound A dose 30,−
same,NCS,[1]; Compound A dose 30,−
same,protective effects on DRG/nerve pathology,[1]; therapeutic setting,not present
same,allodynia vs CTRL (mechanical threshold),"[1]; therapeutic setting, after 5 weeks and at the end of treatment, all doses",protected
same,caudal NCV and potential amplitude vs CTRL,[1]; [5],statistically significant reduction
same,digital NCV vs CTRL,[1]; [5],statistically significant reduction only the animals treated with bortezomib alone; also recorded: Only the animals treated with bortezomib alone showed a significant reduction
same,body weight vs. CTRL and bortezomib groups,"[1]; therapeutic setting, end of treatment, Compound A 30",significant increase in body weight
same,body weight vs. CTRL and bortezomib groups,"[1]; therapeutic setting, following 10 days co-treatment",significant increase of body weight
same,digital potential amplitude vs CTRL,"[1]; therapeutic setting, highest dose of Compound A",reduction in potential amplitude
same,Allodynia,[2]; Compound A dose 3,+
same,Body Weight,[2]; Compound A dose 3,+/−
same,DRG/nerve pathology,[2]; Compound A dose 3,−
same,IENFD,[2]; Compound A dose 3,+
same,NCS,[2]; Compound A dose 3,−
same,Allodynia,[2]; Compound A dose 10,+
same,Body Weight,[2]; Compound A dose 10,+/−
same,DRG/nerve pathology,[2]; Compound A dose 10,+/−
same,IENFD,[2]; Compound A dose 10,+
same,NCS,[2]; Compound A dose 10,−
same,Allodynia,[2]; Compound A dose 30,+
same,Body Weight,[2]; Compound A dose 30,+/−
same,DRG/nerve pathology,[2]; Compound A dose 30,+/−
same,IENFD,[2]; Compound A dose 30,+
same,NCS,[2]; Compound A dose 30,+/−
same,mild axonal changes in the sciatic nerve,[2]; different doses,did not alter these changes
same,DRG sensory neuron degeneration and satellite cell vacuolization,[2]; preventive setting,incomplete protection
same,digital NCV vs CTRL,"[2]; preventive setting, Compound A 30 mg/kg",no alteration
same,digital NCV vs CTRL,"[2]; preventive setting, Compound A 3 and 10 mg/kg",statistically significant reduction
same,bortezomib-induced reduction in IENFD,"[2]; preventive setting, all doses",significantly prevented
same,allodynia vs CTRL (mechanical threshold),"[2]; preventive setting, all doses, end of treatment",did not show allodynia
same,caudal NCV and caudal potential amplitude vs CTRL,"[2]; preventive setting, all doses, monohydrochloride salt",statistically significant reduction
same,digital potential amplitude vs CTRL,"[2]; preventive setting, all groups, end of treatment",No changes
same,caudal nerve pathological changes,"[2]; preventive setting, different doses","mild, not dose-dependent reduction in these pathological changes"
same,body weight difference vs. CTRL and bortezomib groups,"[2]; preventive study, at the end of treatment",not significant
same,body weight vs. CTRL and bortezomib groups,"[2]; preventive study, different doses, first few weeks until day 21",significant increase in body weight
same,AUClast,"[3]; iv, 3 mg/kg",937 ± 145 ng·h/mL
same,C0083/Cmax,"[3]; iv, 3 mg/kg",682 ± 58.5 ng/mL
same,CL (clearance),"[3]; iv, 3 mg/kg",52.0 ± 9.22 mL/min/kg
same,Vss (volume distribution at steady state),"[3]; iv, 3 mg/kg",6600 ± 491 mL/kg
same,"t1/2, z","[3]; iv, 3 mg/kg",1.92 ± 0.121 h
same,AUClast,"[3]; iv, 10 mg/kg",3540 ± 765 ng·h/mL
same,AUClast,"[3]; po, 3 mg/kg",780 ± 155 ng·h/mL
same,C0083/Cmax,"[3]; po, 3 mg/kg",181 ± 43.7 ng/mL
same,F (bioavailability),"[3]; po, 3 mg/kg",83 ± 21%
same,"t1/2, z","[3]; po, 3 mg/kg",2.56 ± 0.177 h
same,tmax,"[3]; po, 3 mg/kg",1.67 ± 0.577 h
same,AUClast,"[3]; po, 10 mg/kg",3400 ± 1010 ng·h/mL
same,tmax,"[3]; po, 10 mg/kg",1.67 ± 2.02 h
same,AUClast,"[3]; po, 30 mg/kg",12300 ± 1400 ng·h/mL
same,C0083/Cmax,"[3]; po, 30 mg/kg",1430 ± 208 ng/mL
same,F (bioavailability),"[3]; po, 30 mg/kg",116 ± 28%
same,bioavailability,"[3]; po, 30 mg/kg",exceeded 80%
same,"t1/2, z","[3]; po, 30 mg/kg",3.26 ± 0.170 h
same,tmax,"[3]; po, 30 mg/kg",1.67 ± 0.577 h
same,time after dosing at which pre-dose heart rate levels were reached again,healthy male subjects; 0.1 to 10 mg single oral dose,6 h
same,pulse rate,healthy male subjects; groups treated with Compound A,decrease
same,maximal decrease of mean heart rate (Holter-ECG),healthy male subjects; single oral dose 0.1 mg,5.1 bpm
same,maximal decrease of mean heart rate (Holter-ECG),healthy male subjects; single oral dose 0.3 mg,6.8 bpm
same,maximal decrease of mean heart rate (Holter-ECG),healthy male subjects; single oral dose 1.0 mg,15.9 bpm
same,maximal decrease of mean heart rate (Holter-ECG),healthy male subjects; single oral dose 10 mg,18.3 bpm
same,"Compound A, HPLC results",[4]; [6],99.60%
same,"Impurity RRT 0.97, HPLC results",[4]; [6],0.40%
same,"Compound A, HPLC results",[4]; [7],99.70%
same,"Impurity RRT 0.97, HPLC results",[4]; [7],0.29%
same,"Compound A, HPLC results",[4]; [8],99.75%
same,"Impurity RRT 0.97, HPLC results",[4]; [8],0.25%
same,"Compound A, HPLC results",[4]; [9],99.74%
same,"Impurity RRT 0.97, HPLC results",[4]; [9],0.24%
same,"Compound A, HPLC results",[4]; [10],99.73%
same,"Impurity RRT 0.97, HPLC results",[4]; [10],0.27%
same,"Compound A, HPLC results","[4]; during drying at 60° C., t = 0",99.83%
same,"Impurity RRT 0.97, HPLC results","[4]; during drying at 60° C., t = 0",0.17%
same,"Compound A, HPLC results",[4]; [11],99.78%
same,"Impurity RRT 0.97, HPLC results",[4]; [11],0.17%
